Assays:
Trichophyton rubrum [1] = assay: Antifungal activity against Trichophyton rubrum C135 after 48 hrs; format: functional
Trichophyton rubrum [2] = assay: Antifungal activity against Trichophyton rubrum C139 after 48 hrs; format: functional
Trichophyton rubrum [3] = assay: Antifungal activity against Trichophyton rubrum C137 after 48 hrs; format: functional
Trichophyton rubrum [4] = assay: Antifungal activity against Trichophyton rubrum C140 after 48 hrs; format: functional
Trichophyton benhamiae [5] = assay: Antifungal activity against Trichophyton mentagrophytes C364 after 48 hrs; format: functional, Arthroderma benhamiae
Trichophyton benhamiae [6] = assay: Antifungal activity against Trichophyton mentagrophytes C943 after 48 hrs; format: functional, Arthroderma benhamiae
Trichophyton benhamiae [7] = assay: Antifungal activity against Trichophyton mentagrophytes C738 after 48 hrs; format: functional, Arthroderma benhamiae
Trichophyton rubrum [8] = assay: Antifungal activity against Trichophyton rubrum C110 after 48 hrs; format: functional
Trichophyton rubrum [9] = assay: Antifungal activity against Trichophyton rubrum C136 after 48 hrs; format: functional
Trichophyton benhamiae [10] = assay: Antifungal activity against Trichophyton mentagrophytes C539 after 48 hrs; format: functional, Arthroderma benhamiae
Trichophyton benhamiae [11] = assay: Antifungal activity against Trichophyton mentagrophytes C108 after 48 hrs; format: functional, Arthroderma benhamiae
Trichophyton rubrum [12] = assay: Antifungal activity against Trichophyton rubrum C113 after 48 hrs; format: functional
Trichophyton benhamiae [13] = assay: Antifungal activity against Trichophyton mentagrophytes ATCC 9972 after 48 hrs; format: functional, Arthroderma benhamiae; settings: ATCC 9972, 48 h
Aspergillus fumigatus = assay: Antifungal activity against Aspergillus fumigatus ATCC 26934 after 48 hrs; format: functional; settings: ATCC 26934, 48 h
Nannizzia gypsea = assay: Antifungal activity against Microsporum gypseum C115 after 48 hrs; format: functional
Candida albicans [14] = assay: Antifungal activity against Candida albicans ATCC 10231 after 48 hrs; format: functional; settings: ATCC 10231, 48 h
Aspergillus niger = assay: Antifungal activity against Aspergillus niger ATCC 9029 after 48 hrs; format: functional; settings: ATCC 9029, 48 h
Cryptococcus neoformans [15] = assay: Antifungal activity against Cryptococcus neoformans ATCC 32264 after 48 hrs; format: functional; settings: ATCC 32264, 48 h
Aspergillus flavus = assay: Antifungal activity against Aspergillus flavus ATCC 9170 after 48 hrs; format: functional; settings: ATCC 9170, 48 h
Saccharomyces cerevisiae = assay: Antifungal activity against Saccharomyces cerevisiae ATCC 9763 after 48 hrs; format: functional; settings: ATCC 9763, 48 h
Candida albicans [16] = assay: Antifungal activity against Candida albicans C129-2000 after 48 hrs; format: functional
Candida parapsilosis = assay: Antifungal activity against Candida parapsilosis C124-2000 after 48 hrs; format: functional; settings: Lodderomyces parapsilosis
Cryptococcus neoformans [17] = assay: Antifungal activity against […] IM 052470 after 48 hrs; format: functional
Torulaspora delbrueckii = assay: Antifungal activity against Candida coliculosa C122-2000 after 48 hrs; format: functional
Candida albicans [18] = assay: Antifungal activity against Candida albicans C125-2000 after 48 hrs; format: functional
Kluyveromyces marxianus = assay: Antifungal activity against Candida kefyr C123-2000 after 48 hrs; format: functional
Cryptococcus neoformans [19] = assay: Antifungal activity against […] ATCC 32264 after 48 hrs; format: functional; settings: ATCC 32264, 48 h
Cryptococcus neoformans [20] = assay: Antifungal activity against Candida neoformans IM 983040 after 48 hrs; format: functional
Candida albicans [21] = assay: Antifungal activity against Candida albicans C130-2000 after 48 hrs; format: functional
Cryptococcus neoformans [22] = assay: Antifungal activity against […] IM 961951 after 48 hrs; format: functional
Cryptococcus neoformans [23] = assay: Antifungal activity against […] IM 031706 after 48 hrs; format: functional
Cryptococcus neoformans [24] = assay: Antifungal activity against […] IM 972724 after 48 hrs; format: functional
Cryptococcus neoformans [25] = assay: Antifungal activity against […] IM 031631 after 48 hrs; format: functional; settings: Cryptococcus neoformans, 48 h
Candida tropicalis = assay: Antifungal activity against Candida tropicalis C131-1997 after 48 hrs; format: functional
Candida albicans [26] = assay: Antifungal activity against Candida albicans C128-2000 after 48 hrs; format: functional
Cryptococcus neoformans [27] = assay: Antifungal activity against […] IM 972751 after 48 hrs; format: functional
Cryptococcus neoformans [28] = assay: Antifungal activity against […] IM 983036 after 48 hrs; format: functional
Cryptococcus neoformans [29] = assay: Antifungal activity against […] IM 042074 after 48 hrs; format: functional
Pichia kudriavzevii = assay: Antifungal activity against Candida krusei C117-2000 after 48 hrs; format: functional
Cryptococcus neoformans [30] = assay: Antifungal activity against […] IM 00319 after 48 hrs; format: functional
Candida albicans [31] = assay: Antifungal activity against Candida albicans C127-2000 after 48 hrs; format: functional
Nakaseomyces glabratus = assay: Antifungal activity against Candida glabrata C115-2000 after 48 hrs; format: functional
Candida albicans [32] = assay: Antifungal activity against Candida albicans C126-2000 after 48 hrs; format: functional
Clavispora lusitaniae = assay: Antifungal activity against Candida lusitaniae C131-2000 after 48 hrs; format: functional

CN(C/C=C/C#CC(C)(C)C)Cc1cccc2ccccc12 [TERBINAFINE]
0.006 µg/mL: MIC (Trichophyton rubrum [1]) | MIC (Trichophyton rubrum [3]) | MIC (Trichophyton benhamiae [5]) | MIC (Trichophyton benhamiae [6]) | MIC (Trichophyton benhamiae [7]) | MIC (Trichophyton rubrum [8]) | MIC (Trichophyton rubrum [9]) | MIC (Trichophyton benhamiae [10]) | MIC (Trichophyton benhamiae [11])
0.012 µg/mL: MIC (Trichophyton rubrum [2])
0.003 µg/mL: MIC (Trichophyton rubrum [4])

O=C1NC(=S)S/C1=C\c1ccccc1C(F)(F)F
250 µg/mL: MIC (Candida albicans [14]) | MIC (Saccharomyces cerevisiae)
0.97 µg/mL: MIC (Trichophyton benhamiae [5]) | MIC (Trichophyton benhamiae [6])
1.95 µg/mL: MIC (Trichophyton rubrum [3]) | MIC (Trichophyton benhamiae [7]) | MIC (Trichophyton benhamiae [10]) | MIC (Trichophyton benhamiae [11])
15.6 µg/mL: MIC (Cryptococcus neoformans [15])
3.9 µg/mL: MIC (Trichophyton rubrum [12]) | MIC (Trichophyton rubrum [1]) | MIC (Trichophyton benhamiae [13]) | MIC (Nannizzia gypsea) | MIC (Trichophyton rubrum [2]) | MIC (Trichophyton rubrum [8]) | MIC (Trichophyton rubrum [9])
3.57 µg/mL: MIC (Trichophyton rubrum [4])
> 250 µg/mL: MIC (Aspergillus fumigatus) | MIC (Aspergillus niger) | MIC (Aspergillus flavus)

O=C1NC(=S)S/C1=C\c1ccc(F)cc1
0.97 µg/mL: MIC (Trichophyton benhamiae [5]) | MIC (Trichophyton benhamiae [6])
51.6 µg/mL: MFC (Nakaseomyces glabratus)
31.2 µg/mL: MFC (Candida albicans [16]) | MFC (Cryptococcus neoformans [17]) | MFC (Candida albicans [18]) | MFC (Kluyveromyces marxianus) | MIC (Kluyveromyces marxianus) | MFC (Cryptococcus neoformans [19]) | MFC (Cryptococcus neoformans [20]) | MFC (Candida albicans [21]) | MFC (Cryptococcus neoformans [23]) | MFC (Cryptococcus neoformans [24]) | MFC (Cryptococcus neoformans [25]; read-out: MFC) | MIC (Candida albicans [26]) | MFC (Cryptococcus neoformans [29]) | MIC (Pichia kudriavzevii) | MFC (Candida albicans [31]) | MFC (Candida albicans [32])
62.5 µg/mL: MFC (Candida albicans [26]) | MFC (Cryptococcus neoformans [27]) | MFC (Cryptococcus neoformans [28]) | MFC (Pichia kudriavzevii)
250 µg/mL: MIC (Aspergillus fumigatus) | MIC (Aspergillus niger) | MIC (Aspergillus flavus)
3.9 µg/mL: MIC50 (Candida albicans [16]) | MIC80 (Candida parapsilosis) | MIC50 (Torulaspora delbrueckii) | MIC80 (Torulaspora delbrueckii) | MIC50 (Kluyveromyces marxianus) | MIC50 (Cryptococcus neoformans [19]) | MIC50 (Candida albicans [21]) | MIC80 (Cryptococcus neoformans [23]) | MIC50 (Cryptococcus neoformans [24]) | MIC80 (Cryptococcus neoformans [25]) | MIC50 (Candida tropicalis) | MIC50 (Candida albicans [26]) | MIC50 (Cryptococcus neoformans [29]) | MIC80 (Cryptococcus neoformans [29]) | MIC50 (Pichia kudriavzevii) | MIC50 (Nakaseomyces glabratus) | MIC80 (Nakaseomyces glabratus) | MIC50 (Candida albicans [32]) | MIC50 (Clavispora lusitaniae) | MIC80 (Clavispora lusitaniae)
15.6 µg/mL: MIC (Candida albicans [16]) | MFC (Candida parapsilosis) | MFC (Torulaspora delbrueckii) | MIC (Candida albicans [18]) | MIC (Cryptococcus neoformans [20]) | MIC (Candida albicans [21]) | MIC (Nannizzia gypsea) | MFC (Cryptococcus neoformans [22]) | MIC (Cryptococcus neoformans [24]) | MFC (Candida tropicalis) | MIC80 (Candida albicans [26]) | MIC (Cryptococcus neoformans [28]) | MFC (Cryptococcus neoformans [30]) | MIC (Candida albicans [31]) | MIC80 (Candida albicans [31]) | MIC (Candida albicans [32]) | MIC80 (Candida albicans [32]) | MFC (Clavispora lusitaniae)
7.8 µg/mL: MIC80 (Candida albicans [16]) | MIC (Candida parapsilosis) | MIC50 (Candida parapsilosis) | MIC (Cryptococcus neoformans [17]) | MIC (Torulaspora delbrueckii) | MIC50 (Candida albicans [18]) | MIC80 (Candida albicans [18]) | MIC80 (Kluyveromyces marxianus) | MIC (Cryptococcus neoformans [19]) | MIC80 (Cryptococcus neoformans [19]) | MIC (Trichophyton benhamiae [13]) | MIC80 (Candida albicans [21]) | MIC (Candida albicans [14]) | MIC (Cryptococcus neoformans [22]) | MIC80 (Cryptococcus neoformans [22]) | MIC (Cryptococcus neoformans [23]) | MIC80 (Cryptococcus neoformans [24]) | MIC (Cryptococcus neoformans [15]) | MIC (Cryptococcus neoformans [25]) | MIC (Candida tropicalis) | MIC80 (Candida tropicalis) | MIC (Cryptococcus neoformans [27]) | MIC50 (Cryptococcus neoformans [28]) | MIC80 (Cryptococcus neoformans [28]) | MIC (Cryptococcus neoformans [29]) | MIC80 (Pichia kudriavzevii) | MIC (Cryptococcus neoformans [30]) | MIC50 (Candida albicans [31]) | MIC (Nakaseomyces glabratus) | MIC (Saccharomyces cerevisiae) | MIC (Clavispora lusitaniae)
32 µg/mL: MIC (Trichophyton rubrum [12])
1.9 µg/mL: MIC50 (Cryptococcus neoformans [17]) | MIC80 (Cryptococcus neoformans [17]) | MIC50 (Cryptococcus neoformans [20]) | MIC80 (Cryptococcus neoformans [20]) | MIC50 (Cryptococcus neoformans [22]) | MIC50 (Cryptococcus neoformans [23]) | MIC50 (Cryptococcus neoformans [25]) | MIC50 (Cryptococcus neoformans [27]) | MIC80 (Cryptococcus neoformans [27]) | MIC50 (Cryptococcus neoformans [30]) | MIC80 (Cryptococcus neoformans [30])
1.95 µg/mL: MIC (Trichophyton benhamiae [7]) | MIC (Trichophyton benhamiae [10]) | MIC (Trichophyton benhamiae [11])

— ChEMBL document CHEMBL1144507, “Synthesis and antifungal activity of (Z)-5-arylidenerhodanines” (2007)
